# Biological target: T1, His-tagged full-length RSK2 (RPS6KA3) (Homo sapiens, UniProt P51812)
# T1 construct: His-tagged full-length RSK2 (RPS6KA3, Invitrogen PV3323); His; purchased Invitrogen PV3323
# Assay: RSK2 Omnia Assay for compound IC50 determination
# Type: biochemical
# Details: ATP 15 μM, n=2, read-out: Mean RSK2 Biochem IC50
# Summary of the method: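 Initial-rate slopes from continuous kinetic reads were fitted to a four-parameter equation for IC50 (n=2). Ki was then derived by Cheng-Prusoff assuming ATP-competitive inhibition. Reactions contained 15 μM ATP (Km 16.3 μM), 5 μM Omnia ST Peptide 6, and […] in 50 mM HEPES pH 7.5, 10 mM MgCl2, 1 mM DTT, 1% DMSO. Compounds spanned 11 threefold steps, […] final.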
# T1 sequence (P51812 whole entry): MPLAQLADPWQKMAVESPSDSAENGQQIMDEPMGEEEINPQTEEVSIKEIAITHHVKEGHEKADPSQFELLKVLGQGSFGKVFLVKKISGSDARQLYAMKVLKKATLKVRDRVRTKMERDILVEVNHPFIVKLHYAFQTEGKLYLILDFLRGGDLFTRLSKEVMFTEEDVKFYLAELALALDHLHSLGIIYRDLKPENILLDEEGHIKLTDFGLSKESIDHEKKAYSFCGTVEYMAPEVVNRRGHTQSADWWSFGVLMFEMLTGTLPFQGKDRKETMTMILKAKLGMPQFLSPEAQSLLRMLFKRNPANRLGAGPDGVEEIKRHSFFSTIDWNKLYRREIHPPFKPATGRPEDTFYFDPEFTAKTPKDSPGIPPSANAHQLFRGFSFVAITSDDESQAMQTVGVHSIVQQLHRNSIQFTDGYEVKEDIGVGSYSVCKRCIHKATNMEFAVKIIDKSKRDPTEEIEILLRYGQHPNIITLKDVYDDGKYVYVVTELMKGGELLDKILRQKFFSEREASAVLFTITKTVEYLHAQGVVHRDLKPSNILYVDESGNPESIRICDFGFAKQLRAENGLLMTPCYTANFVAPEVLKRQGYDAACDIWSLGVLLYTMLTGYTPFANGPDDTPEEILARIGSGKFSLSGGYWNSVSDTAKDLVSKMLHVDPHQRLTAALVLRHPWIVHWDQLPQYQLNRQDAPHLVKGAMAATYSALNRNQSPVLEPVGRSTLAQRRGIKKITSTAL
row,SMILES,IC50 [nM]
1,"CC(C)Oc1ccc(N2C(=O)[C@@H](C)N([C@H]3CC[C@H](C)CC3)c3nc(Nc4ccc5[nH]c(=O)oc5c4)ncc32)cc1C#N [compound 249, 5-[(7R)-7-methyl-8-(trans-4-methylcyclohexyl)-6-oxo-2-[(2-oxo-2,3-dihydro-1,3-benzoxazol-6-yl)amino]-7,8-dihydropteridin-5(6H)-yl]-2-(propan-2-yloxy)benzonitrile]",≤ 100
2,"C[C@@H]1C(=O)N(c2ccccc2)c2cnc(Nc3ccc4[nH]ncc4c3)nc2N1CC1CCCCC1 [Example 72, (7R)-8-(cyclohexylmethyl)-2-(1H-indazol-5-ylamino)-7-methyl-5-phenyl-7,8-dihydropteridin-6(5H)-one]",≤ 100
3,"C[C@@H]1C(=O)N(c2cccc(C#N)c2)c2cnc(Nc3ccc4[nH]ncc4c3)nc2N1C1CCOCC1 [compound 184, 3-[(7R)-2-(1H-indazol-5-ylamino)-7-methyl-6-oxo-8-(tetrahydro-2H-pyran-4-yl)-7,8-dihydropteridin-5(6H)-yl]benzonitrile]",≤ 100
4,"C[C@@H]1C(=O)N(c2ccc(C(=O)O)cc2)c2cnc(Nc3ccc4[nH]ncc4c3)nc2N1C1CCCCC1 [Example 63, 4-[(7R)-8-cyclohexyl-2-(1 H-indazol-5-ylamino)-7-methyl-6-oxo-7,8-dihydropteridin-5(6H)-yl]benzoic acid]",≤ 100
5,"CCOc1ccc(N2C(=O)[C@@H](C)N(CCC(C)C)c3nc(Nc4cc(F)c5[nH]ncc5c4)ncc32)cc1C#N [Example 92, 2-ethoxy-5-[(7R)-2-[(7-fluoro-1H-indazol-5-yl)amino]-7-methyl-8-(3-methylbutyl)-6-oxo-7,8-dihydropteridin-5(6H)-yl]benzonitrile]",≤ 100
6,"C[C@@H]1C(=O)N(c2cccc(F)c2)c2cnc(Nc3cc(F)c4[nH]ncc4c3)nc2N1C1CCC(C)(C)CC1 [Example 211, (7R)-8-(4,4-dimethylcyclohexyl)-2-[(7-fluoro-1H-indazol-5-yl)amino]-5-(3-fluorophenyl)-7-methyl-7,8-dihydropteridin-6(5H)-one]",≤ 100
7,"C[C@@H]1C(=O)N(c2cccc(C#N)c2)c2cnc(Nc3cc(F)c4[nH]nc(F)c4c3)nc2N1C1CCCCC1 [compound 131, 3-[(7R)-8-cyclohexyl-2-[(3,7-difluoro-1H-indazol-5-yl)amino]-7-methyl-6-oxo-7,8-dihydropteridin-5(6H)-yl]benzonitrile]",≤ 100
8,"C[C@@H]1C(=O)N(c2cccc(C#N)c2)c2cnc(Nc3ccc4[nH]ncc4n3)nc2N1C1CCCCC1 [compound 167, 3-[(7R)-8-cyclohexyl-7-methyl-6-oxo-2-(1H-pyrazolo[4,3-b]pyridin-5-ylamino)-7,8-dihydropteridin-5(6H)-yl]benzonitrile]",100 to 1000
9,"COc1cc(N2C(=O)[C@@H](C)N(C3CCCCC3)c3nc(Nc4ccc5[nH]ncc5c4)ncc32)cc(OC)c1OC [Example 38, (7R)-8-cyclohexyl-2-(1H-indazol-5-ylamino)-7-methyl-5-(3,4,5-trimethoxyphenyl)-7,8-dihydropteridin-6(5H)-one]",≤ 100
10,"C[C@@H]1C(=O)N(c2ccc(N3CCC(O)CC3)nc2)c2cnc(Nc3cc(F)c4[nH]ncc4c3)nc2N1C1CCCCC1 [compound 147, (7R)-8-cyclohexyl-2-[(7-fluoro-1H-indazol-5-yl)amino]-5-[6-(4-hydroxypiperidin-1-yl)pyridin-3-yl]-7-methyl-7,8-dihydropteridin-6(5H)-one]",≤ 100
11,"COc1ccc(N2C(=O)[C@@H](C)N(C3CCC(F)(F)CC3)c3nc(Nc4cc(F)c5[nH]ncc5c4)ncc32)cc1OC [compound 262, (7R)-8-(4,4-difluorocyclohexyl)-5-(3,4-dimethoxyphenyl)-2-[(7-fluoro-1H-indazol-5-yl)amino]-7-methyl-7,8-dihydropteridin-6(5H)-one]",≤ 100
12,"COc1ccc(N2C(=O)[C@@H](C)N(C3CCOCC3)c3nc(Nc4cnc5[nH]ncc5c4)ncc32)cc1C#N [compound 200, 2-methoxy-5-[(7R)-7-methyl-6-oxo-2-(1H-pyrazolo[3,4-b]pyridin-5-ylamino)-8-(tetrahydro-2H-pyran-4-yl)-7,8-dihydropteridin-5(6H)-yl]benzonitrile]",≤ 100
13,"CC[C@@H]1C(=O)N(c2ccc(OC)c(F)c2)c2cnc(Nc3cc(F)c4[nH]ncc4c3)nc2N1C1CCCCC1 [compound 294, (7R)-8-cyclohexyl-7-ethyl-2-[(7-fluoro-1H-indazol-5-yl)amino]-5-(3-fluoro-4-methoxyphenyl)-7,8-dihydropteridin-6(5H)-one]",≤ 100
14,"C[C@@H]1C(=O)N(c2cccnc2)c2cnc(Nc3cc(F)c4[nH]ncc4c3)nc2N1C1CCC2(CC1)CC2 [Example 298, (7R)-2-[(7-fluoro-1H-indazol-5-yl)amino]-7-methyl-5-(pyridin-3-yl)-8-(spiro[2.5]oct-6-yl)-7,8-dihydropteridin-6(5H)-one]",≤ 100
15,"COC(=O)c1ccc(Nc2ncc3c(n2)N(CCC(C)C)C(C)C(=O)N3c2ccccc2)cc1 (centres unmarked) [Example 9, methyl 4-{[7-methyl-8-(3-methylbutyl)-6-oxo-5-phenyl-5,6,7,8-tetrahydropteridin-2-yl]amino}benzoate]",> 1000
16,"C[C@@H]1C(=O)N(c2cccc(C#N)c2)c2cnc(Nc3cc(F)c(O)c(F)c3)nc2N1[C@H]1CC[C@H](C)CC1 [compound 243, 3-[(7R)-2-[(3,5-difluoro-4-hydroxyphenyl)amino]-7-methyl-8-(trans-4-methylcyclohexyl)-6-oxo-7,8-dihydropteridin-5(6H)-yl]benzonitrile]",≤ 100
17,"C[C@@H]1C(=O)N(c2cccc(C#N)c2)c2cnc(Nc3ccc4[nH]nc(Cl)c4c3)nc2N1C1CCCCC1 [compound 108, 3-[(7R)-2-[(3-chloro-1H-indazol-5-yl)amino]-8-cyclohexyl-7-methyl-6-oxo-7,8-dihydropteridin-5(6H)-yl]benzonitrile]",≤ 100
18,"C[C@@H]1C(=O)N(c2cccc(N(C)C)c2)c2cnc(Nc3ccc4[nH]ncc4c3)nc2N1C1CCCCC1 [Example 44, (7R)-8-cyclohexyl-5-[3-(dimethylamino)phenyl]-2-(1H-indazol-5-ylamino)-7-methyl-7,8-dihydropteridin-6(5H)-one]",≤ 100
19,"COc1ccc(N2C(=O)[C@@H](C)N([C@H]3CC[C@@H](C)CC3)c3nc(Nc4cc(F)c5[nH]ncc5c4)ncc32)cc1OC [compound 238, (7R)-5-(3,4-dimethoxyphenyl)-2-[(7-fluoro-1H-indazol-5-yl)amino]-7-methyl-8-(cis-4-methylcyclohexyl)-7,8-dihydropteridin-6(5H)-one]",≤ 100
20,C[C@@H]1C(=O)N(c2cccc(C#N)c2)c2cnc(Nc3ccc(N)c(C(F)(F)F)c3)nc2N1C1CCC(F)(F)CC1 [compound 275],> 1000
21,"CCOP(=O)(Cc1ccc(Nc2ncc3c(n2)N(CCC(C)C)C(C)C(=O)N3c2ccccc2)cc1)OCC (centres unmarked) [Example 4, diethyl (4-{[7-methyl-8-(3-methylbutyl)-6-oxo-5-phenyl-5,6,7,8-tetrahydropteridin-2-yl]amino}benzyl)phosphonate]",> 1000
22,"CC[C@@H]1C(=O)N(c2cccnc2)c2cnc(Nc3cc(F)c4[nH]ncc4c3)nc2N1C1CCCCC1 [compound 288, (7R)-8-cyclohexyl-7-ethyl-2-[(7-fluoro-1H-indazol-5-yl)amino]-5-(pyridin-3-yl)-7,8-dihydropteridin-6(5H)-one]",≤ 100
23,"C[C@@H]1C(=O)N(c2cccc(C#N)c2)c2cnc(Nc3cc(F)c4[nH]ncc4c3)nc2N1C1CCCCC1 [compound 106, 3-[(7R)-8-cyclohexyl-2-[(7-fluoro-1H-indazol-5-yl)amino]-7-methyl-6-oxo-7,8-dihydropteridin-5(6H)-yl]benzonitrile]",≤ 100
24,"COc1cc2[nH]ncc2cc1Nc1ncc2c(n1)N(C1CCCCC1)[C@H](C)C(=O)N2c1cccc(C#N)c1 [compound 119, 3-[(7R)-8-cyclohexyl-2-[(6-methoxy-1H-indazol-5-yl)amino]-7-methyl-6-oxo-7,8-dihydropteridin-5(6H)-yl]benzonitrile]",> 1000
25,"COc1ccc(N2C(=O)[C@@H](C)N(C3CCOCC3)c3nc(Nc4cc(F)c5[nH]ncc5c4)ncc32)cn1 [compound 192, (7R)-2-[(7-fluoro-1H-indazol-5-yl)amino]-5-(6-methoxypyridin-3-yl)-7-methyl-8-(tetrahydro-2H-pyran-4-yl)-7,8-dihydropteridin-6(5H)-one]",≤ 100
26,"C[C@@H]1C(=O)N(c2cccc(C#N)c2)c2cnc(Nc3cc(F)c4[nH]ncc4c3)nc2N1c1cccc(F)c1 [compound 183, 3-[(7R)-2-[(7-fluoro-1H-indazol-5-yl)amino]-8-(3-fluorophenyl)-7-methyl-6-oxo-7,8-dihydropteridin-5(6H)-yl]benzonitrile]",≤ 100
27,"Cc1cccc(N2C(=O)[C@@H](C)N(C3CCCCC3)c3nc(Nc4ccc5[nH]ncc5c4)ncc32)c1 [Example 30, (7R)-8-cyclohexyl-2-(1H-indazol-5-ylamino)-7-methyl-5-(3-methylphenyl)-7,8-dihydropteridin-6(5H)-one]",≤ 100
28,"N#Cc1cccc(N2C(=O)[C@H]3CCCN3c3nc(Nc4cc(F)c5[nH]ncc5c4)ncc32)c1 [Example 84, 3-[(6aR)-2-[(7-fluoro-1H-indazol-5-yl)amino]-6-oxo-6a,7,8,9-tetrahydropyrrolo[2,1-h]pteridin-5(6H)-yl]benzonitrile]",100 to 1000
29,"CNS(=O)(=O)c1ccc(N2C(=O)[C@@H](C)N(C3CCCCC3)c3nc(Nc4ccc5[nH]ncc5c4)ncc32)cc1 [Example 37, 4-[(7R)-8-cyclohexyl-2-(1H-indazol-5-ylamino)-7-methyl-6-oxo-7,8-dihydropteridin-5(6H)-yl]-N-methylbenzenesulfonamide]",≤ 100
